Like-named read-outs stand apart in the source and are kept apart here.
System: NLRP3
Assay: IL-1β secretion assay in PMA-differentiated, LPS/nigericin-stimulated THP-1 cells (384-well, ELISA read-out)
Assay type: cell-based, human
How it was run: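 THP-1 cells differentiated with PMA (5 ng/mL, 40 h), primed in serum-free medium with 25 ng/mL LPS for 2 h, treated with compounds 1 h (0.5% DMSO), then stimulated with nigericin for 2 h at 37 °C. Supernatant IL-1β measured by ELISA; responses normalized to LPS+5 μM nigericin and LPS-only controls.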

[1] = Homo sapiens, THP-1, IL-1β secretion, PMA-differentiated THP-1 cells, LPS then nigericin stimulation, ELISA read at 450 nm, read-out: Activity
[2] = Homo sapiens, THP-1, Table 4, IL-1β secretion, LPS/nigericin-stimulated THP-1 cells, read-out: IC50
[3] = Table 4, IL-1β secretion, LPS/nigericin-stimulated THP-1 cells, read-out: IC50

Compound	IC50 [1] [µM]	IC50 [2] [µM]	IC50 [3] [µM]	IC50 (IL-1β secretion, PMA-differentiated THP-1 cells, LPS then nigericin stimulation, ELISA read at 450 nm, read-out: Activity) [µM]
O=C(CN1CC2(CC2)c2cc(Br)ccc2C1=O)Nc1nc2ccccn2n1 [Example 181]	< 10	0.143		
O=C(CN1CC2(CC2)c2cc(Br)ccc2C1=O)Nc1ncccn1 [Example 5]	< 10	0.216		
Cn1ncc2cc(NC(=O)CN3CC4(CC4)c4cc(Br)ccc4C3=O)ccc21 [Example 141, 2-(6-bromo-1-oxospiro[3H-isoquinoline-4,1′-cyclopropane]-2-yl)-N-(1-methylindazol-5-yl)acetamide]	< 10	1.23		
CN1CCC(NC(=O)CN2CC3(CC3)c3cc(Br)ccc3C2=O)CC12CC2 (stereo not shown) [Example 370, 2-(6-bromo-1-oxospiro[3H-isoquinoline-4,1′-cyclopropane]-2-yl)-N-(4-methyl-4-azaspiro[2.5]octan-7-yl)acetamide]		5.97		
O=C(CN1CC2(CC2)c2cc(Br)ccc2C1=O)Nc1ccc2[nH]ncc2c1 [Example 170, 2-(6-bromo-1-oxospiro[3H-isoquinoline-4,1′-cyclopropane]-2-yl)-N-(1H-indazol-5-yl)acetamide]	< 10	1.12		
O=C(CN1C[C@@]2(C[C@@H]2F)c2cc(C(F)(F)F)ccc2C1=O)Nc1ncccn1 (single isomer, unassigned) [Example 240, 2-[(2′s,4r)-2′-fluoro-1-oxo-6-(trifluoromethyl)spiro[3H-isoquinoline-4,1′-cyclopropane]-2-yl]-N-pyrimidin-2-ylacetamide]	< 10		1.22	
O=C(CN1CC2(CC2)c2cc(Br)ccc2C1=O)Nc1ccccc1 [Example 127, 2-(6-bromo-1-oxospiro[3H-isoquinoline-4,1′-cyclopropane]-2-yl)-N-phenylacetamide]	< 10	1.67		
CC(C)(O)C12CC(NC(=O)CN3CC4(CC4)c4cc(Br)ccc4C3=O)(C1)C2 [Example 49, 2-(6-bromo-1-oxo-spiro[3H-isoquinoline-4,1′-cyclopropane]-2-yl)-N-[3-(1-hydroxy-1-methyl-ethyl)-1-bicyclo[1.1.1]pentanyl]acetamide]	< 10	3.01		
CC(C)(O)CNC(=O)CN1CC2(CC2)c2cc(Br)ccc2C1=O [Example 63, 2-(6-bromo-1-oxo-spiro[3H-isoquinoline-4,1′-cyclopropane]-2-yl)-N-(2-hydroxy-2-methyl-propyl)acetamide]	> 15	16.5		
O=C(CN1CC2(CC2(F)F)c2c(ccc(Br)c2F)C1=O)Nc1ncc(F)cn1 (single isomer, unassigned) [Example 289, N-(5-fluoropyrimidin-2-yl)-2-[6-bromo-1′,1′,5-trifluoro-1-oxospiro[3H-isoquinoline-4,2′-cyclopropane]-2-yl]acetamide]			0.027	< 10
C[C@@H]1[C@H](F)[C@]12CN(CC(=O)Nc1ncc(F)cn1)C(=O)c1ccc(Br)cc12 (single isomer, unassigned) [Example 277, 2-[(2′s,3′s,4r)-6-bromo-2′-fluoro-3′-methyl-1-oxospiro[3H-isoquinoline-4,1′-cyclopropane]-2-yl]-N-(5-fluoropyrimidin-2-yl)acetamide]	< 10		0.021	
O=C(CN1CC2(CC2)c2cc(C(F)(F)F)ccc2C1=O)Nc1ncccn1 [Example 27, 2-[1-oxo-6-(trifluoromethyl)spiro[3H-isoquinoline-4,1′-cyclopropane]-2-yl]-N-pyrimidin-2-yl-acetamide]	< 10	0.291		
CC(C)(C#N)NC(=O)CN1CC2(CC2)c2cc(Br)ccc2C1=O [Example 134, 2-(6-bromo-1-oxospiro[3H-isoquinoline-4,1′-cyclopropane]-2-yl)-N-(2-cyanopropan-2-yl)acetamide]	> 15			
O=C(CN1CC2(CC2)c2cc(Br)ccc2C1=O)Nc1nc2ccc(C(F)(F)F)cc2o1 [Example 361, 2-(6-bromo-1-oxospiro[3H-isoquinoline-4,1′-cyclopropane]-2-yl)-N-[6-(trifluoromethyl)-1,3-benzoxazol-2-yl]acetamide]		0.849		
O=C(CN1CC2(CC2)c2cc(Br)ccc2C1=O)NC12CC(C(F)(F)F)(C1)C2 [Example 13, 2-(6-bromo-1-oxospiro[3H-isoquinoline-4,1′-cyclopropane]-2-yl)-N-[3-(trifluoromethyl)-1-bicyclo[1.1.1]pentanyl]acetamide]	< 10	1.75		
Cc1cccc(NC(=O)CN2CC3(CC3)c3cc(Br)ccc3C2=O)n1 [Example 114, 2-(6-bromo-1-oxospiro[3H-isoquinoline-4,1′-cyclopropane]-2-yl)-N-(6-methylpyridin-2-yl)acetamide]	< 10	1.99		
C[C@]1(O)C[C@@H](NC(=O)CN2CC3(CC3)c3cc(Br)ccc3C2=O)C1 [Example 19, 2-(6-bromo-1-oxospiro[3H-isoquinoline-4,1′-cyclopropane]-2-yl)-N-(cis-3-hydroxy-3-methylcyclobutyl)acetamide]	< 10	0.153		

Compound	IC50 [1] [µM]	IC50 [2] [µM]	IC50 [3] [µM]	IC50 (IL-1β secretion, PMA-differentiated THP-1 cells, LPS then nigericin stimulation, ELISA read at 450 nm, read-out: Activity) [µM]
CCc1ccc2c(c1)C1(CC1)CN(CC(=O)Nc1ncc(F)cn1)C2=O [Example 314, 2-(6-ethyl-1-oxospiro[3H-isoquinoline-4,1′-cyclopropane]-2-yl)-N-(5-fluoropyrimidin-2-yl)acetamide]		0.784		
O=C(CN1CC2(CC2)c2cc(Br)ccc2C1=O)NC1CC2(COC2)C1 [Example 61, 2-(6-bromo-1-oxo-spiro[3H-isoquinoline-4,1′-cyclopropane]-2-yl)-N-(2-oxaspiro[3.3]heptan-6-yl)acetamide]	< 10	2.75		
O=C(CN1CC2(CC2)c2cc(Br)ccc2C1=O)Nc1ccc2cc[nH]c2c1 [Example 44, 2-(6-bromo-1-oxospiro[3H-isoquinoline-4,1′-cyclopropane]-2-yl)-N-(1H-indol-6-yl)acetamide]	< 10	1.26		
O=C(CN1CC2(CC2)c2c(F)cccc2C1=O)Nc1ncc(F)cn1 [Example 42, 2-(5-fluoro-1-oxo-spiro[3H-isoquinoline-4,1′-cyclopropane]-2-yl)-N-(5-fluoropyrimidin-2-yl)acetamide]	< 10	5.24		
O=C(CN1CC2(CC2)c2cc(Br)ccc2C1=O)NC1CCN(c2ccccn2)CC1 [Example 379, 2-(6-bromo-1-oxospiro[3H-isoquinoline-4,1′-cyclopropane]-2-yl)-N-(1-pyridin-2-ylpiperidin-4-yl)acetamide]		8.92		
CCC1(C)CN(CC(=O)Nc2ncccn2)C(=O)c2ccc(C(F)(F)F)cc21 (stereo not shown) [Example 30, 2-[4-ethyl-4-methyl-1-oxo-6-(trifluoromethyl)-3H-isoquinolin-2-yl]-N-pyrimidin-2-ylacetamide]	> 15	15.1		
CC(C)(O)C1CCN(C(=O)CN2CC3(CC3)c3cc(Br)ccc3C2=O)C1 (stereo not shown) [Example 66, 6-bromo-2-[2-[3-(1-hydroxy-1-methyl-ethyl)pyrrolidin-1-yl]-2-oxo-ethyl]spiro[3H-isoquinoline-4,1′-cyclopropane]-1-one]	> 15	26.2		
O=C(CN1CC2(CC2)c2cc(Br)ccc2C1=O)Nc1ccc(C(F)F)cn1 [Example 195, 2-(6-bromo-1-oxospiro[3H-isoquinoline-4,1′-cyclopropane]-2-yl)-N-[5-(difluoromethyl)pyridin-2-yl]acetamide]	< 10	1.01		
O=C(CN1CC2(CC2)c2cc(Br)ccc2C1=O)Nc1cc2n(n1)CCOC2 [Example 362, 2-(6-bromo-1-oxospiro[3H-isoquinoline-4,1′-cyclopropane]-2-yl)-N-(6,7-dihydro-4H-pyrazolo[5,1-c][1,4]oxazin-2-yl)acetamide]		1.45		
O=C(CN1CC2(CC2)c2cc(Br)ccc2C1=O)Nc1ccc2nncn2c1 [Example 159, 2-(6-bromo-1-oxospiro[3H-isoquinoline-4,1′-cyclopropane]-2-yl)-N-([1,2,4]triazolo[4,3-a]pyridin-6-yl)acetamide]	< 10	1.77		
O=C(CN1CC2(CC2)c2cc(Br)ccc2C1=O)NC1CCN(CC(F)F)CC1 [Example 367, 2-(6-bromo-1-oxospiro[3H-isoquinoline-4,1′-cyclopropane]-2-yl)-N-[1-(2,2-difluoroethyl)piperidin-4-yl]acetamide]		11.7		
COc1cccnc1NC(=O)CN1CC2(CC2)c2cc(Br)ccc2C1=O [Example 407, 2-(6-bromo-1-oxospiro[3H-isoquinoline-4,1′-cyclopropane]-2-yl)-N-(3-methoxypyridin-2-yl)acetamide]		4.28		
O=C(CN1CC2(COC2)c2cc(Br)ccc2C1=O)Nc1ncccn1 [Example 92, 2-(6-bromo-1-oxospiro[3H-isoquinoline-4,3′-oxetane]-2-yl)-N-pyrimidin-2-ylacetamide]	< 10	4.46		
O=C(CN1CC2(CC2)c2cc(Br)ccc2C1=O)Nc1ccccc1OC(F)F [Example 113, 2-(6-bromo-1-oxospiro[3H-isoquinoline-4,1′-cyclopropane]-2-yl)-N-[2-(difluoromethoxy)phenyl]acetamide]	< 10	4.18		
O=C(CN1C[C@@]2(C[C@@H]2Cl)c2cc(Br)ccc2C1=O)Nc1ncc(F)cn1 (single isomer, unassigned) [Example 283, 2-[(2′r,4s)-6-bromo-2′-chloro-1-oxospiro[3H-isoquinoline-4,1′-cyclopropane]-2-yl]-N-(5-fluoropyrimidin-2-yl)acetamide]	< 10		0.101	
O=C(CN1C[C@@]2(C[C@@H]2C(F)(F)F)c2cc(Br)ccc2C1=O)Nc1ncc(F)cn1 [Example 86, 2-[(2′s,4r)-6-bromo-1-oxo-2′-(trifluoromethyl)spiro[3H-isoquinoline-4,1′-cyclopropane]-2-yl]-N-(5-fluoropyrimidin-2-yl)acetamide]	< 10	2.81		
